{"source": "patent US20220039416A1", "about": "“METHODS OF CONTROLLING THE RIPENING OF AGRICULTURAL PRODUCTS” (Apeel Technology, Inc., priority 2020, published 2022)", "key": {"Mexican avocados [1]": {"test_system": "Mexican avocados", "assay": "Respiration rate (CO2 release) of Mexican avocados", "assay_type": "in vivo, avocado", "details": "for cumulative respiration factor (RF): Example 3", "text": "(§1) As used herein, the “respiration rate” of a product such as produce (e.g., a produce unit) refers to the rate at which the product releases CO2, and more specifically is the volume of CO2 (at standard temperature and pressure) released per unit time per unit mass of the product. In some embodiments, the respiration rate of a product can be measured by placing the product in a closed container of known volume that is equipped with a CO2 sensor, recording the CO2 concentration within the container as a function of time, and then calculating the rate of CO2 release required to obtain the measured concentration values. In some cases, the respiration rate of multiple produce units in a volume (e.g., a sealed or semi-sealed volume) is measured in a single measurement (e.g., as an average). It is understood that respiration rate may be determined by indirect methods, including, but not limited to, hyperspectral imaging, NIR, and other imaging or characterization processes.\nAs used herein, the term “respiration factor” is defined as the ratio of the cumulative respiration of uncoated produce (measured for a control group) to the cumulative respiration of the corresponding coated produce.\n(§2) Four groups of 180 (i.e., 3 sets of 60) Mexican avocados were analyzed over four days. One group received no 1-MCP, and the other group was exposed for eight hours to 1-MCP using 2, 4, or 6 packets of 1-MCP (immobilized in cyclodextrin at 0.014%) per set. Each packet was wetted with water, and then placed in a sealed 30 L container along with 1 set of 60 avocados. The avocados were left in the sealed container for 8 hr. After 8 hours, the avocados were removed and the respiration rate was measured over the course of 4 days. Additionally, the firmness of the avocados (represented as durometer stage) was measured using a durometer.\n(§3) Three groups of 60 Mexican avocados were analyzed over three days at ambient temperature. One group received no treatment. One group of avocados at stage 1 (i.e., after day 0) was exposed to 1-MCP for approximately 8 hours. One group of avocados at stage 3 (i.e., after day 2) was exposed to 1-MCP for approximately 8 hours. The respiration rate of the avocados was measured over the course of 3 days.\n(§4) Three groups of 120 Mexican avocados were analyzed over about 5 days. One group received no treatment. One group was exposed to 1-MCP for 8 hours immediately after removal from cold storage at 4.5° C. (“cold 1-MCP”). One group was exposed to 1-MCP for 8 hours after the avocados spent 2 hours at ambient temperature (“semi-cold 1-MCP”). One group was exposed to 1-MCP for 8 hours after the avocados spent 6 hours at ambient temperature (“ambient 1-MCP”). The respiration rate of the avocados was measured over the course of 5 days. The firmness of the avocados was measured using a durometer.\nFour groups of Mexican avocados were analyzed in order to investigate the minimum respiration peak that Mexican avocadoes should reach in order to ripen without quality issues. One group received no treatment. One group was treated with 1 layer of physical treatment (by bowl dipping and ambient drying; physical treatment A at 30 g/L with 3 g/L glycerol monocaprate). […] The respiration rate of the avocados was measured daily for three weeks. […]\nTo determine the difference in performance for treating avocados on a brush bed at varying concentrations before or after they have been put in ripening rooms, four flats of Mexican avocados were analyzed. […]"}, "Mexican avocados [2]": {"test_system": "Mexican avocados", "assay": "Firmness / durometer stage of Mexican avocados", "assay_type": "in vivo, avocado", "protocol": "In some embodiments, a stage of a produce unit (e.g., an avocado) is based on firmness, and can be measured in shores (e.g., using a durometer) and/or pounds of pressure (e.g., using a penetrometer), then correlated to a stage. In some embodiments, a stage of a produce unit can be based on other parameters, such as respiration rate and/or color).\nas §2, §3, §4\n(§5) To determine the difference in performance for treating avocados on a brush bed at varying concentrations before or after they have been put in ripening rooms, four flats of Mexican avocados were analyzed. One flat received no treatment. The other three flats were treated with physical treatment A at 12, 22, and 32 g/L, respectively, applied using brush bed system and subsequently dried at 50° C. Avocados treated with physical treatment A were also triggered with ethylene, either before or after treatment with physical treatment A. The respiration rate of the avocados was measured. The firmness of the avocados was measured using a durometer."}, "Mexican avocados [3]": {"test_system": "Mexican avocados", "assay": "Quality defects of ripened Mexican avocados", "assay_type": "in vivo, avocado", "protocol": "as §2, §3, §5"}, "Cucumbers [4]": {"test_system": "Cucumbers", "assay": "Mass loss rate of cucumbers", "assay_type": "in vivo, cucumber", "details": "20° C., 5 days", "protocol": "(§6) As used herein, the “mass loss rate” refers to the rate at which the product loses mass (e.g. by releasing water and other volatile compounds). The mass loss rate is typically expressed as a percentage of the original mass per unit time (e.g., percent per day).\n(§7) Cucumbers were analyzed in the presence (2 ppm) and absence (0 ppm) of exogenous ethylene at 20° C. for 5 days. Four groups of cucumbers were analyzed. One group received no treatment. One group was treated with a chemical treatment (i.e., 1-MCP). One group was treated with a physical treatment A (40 g/L). One group was treated with both a chemical treatment (i.e., 1-MCP) and physical treatment A (40 g/L). The respiration rate and the mass loss rate of the cucumbers was measured"}, "Cucumbers [5]": {"test_system": "Cucumbers", "assay": "Respiration rate of cucumbers", "assay_type": "in vivo, cucumber", "details": "20° C., 5 days", "text": "as §1\nas §7, with “One group was treated with both a chemical treatment (i.e., 1-MCP) and physical treatment A (40 g/L).” left out"}, "Cucumbers [6]": {"test_system": "Cucumbers", "assay": "Aesthetics (yellowing, shrivel) of cucumbers", "assay_type": "in vivo, cucumber", "details": "5 days exposure to exogenous ethylene (2 ppm)", "protocol": "as §7"}, "Persian limes [7]": {"test_system": "Persian limes", "assay": "Mass loss rate of Persian limes", "assay_type": "in vivo, Persian lime", "details": "not exposed to ethylene and in the presence of 2 ppm ethylene, 20° C., 5 days", "protocol": "as §6\n(§8) Persian limes were analyzed in the presence (2 ppm) and absence (0 ppm) of exogenous ethylene at 20° C. for 5 days. Four groups of limes were analyzed. One group received no treatment. One group was treated with 1-MCP. One group was treated with physical treatment A (40 g/L). One group was treated with both 1-MCP and physical treatment A (40 g/L). The respiration rate of the limes was measured. The mass loss rate of the limes was measured."}, "Persian limes [8]": {"test_system": "Persian limes", "assay": "Aesthetics (yellowing) of Persian limes", "assay_type": "in vivo, Persian lime", "details": "over a 5 day period; same trends with 2 ppm ethylene", "protocol": "as §8"}, "[9]": {"details": "Example 3, semi-cold and ambient 1-MCP"}, "[10]": {"details": "Example 1, once allowed to ripen (about two weeks), 6 packets 1-MCP"}}, "data": [{"smiles": "CC1=CC1", "note": "[1-MCP, 1-methylcyclopropene]", "values": [{"measurement": "respiration rate", "setting": "Mexican avocados [1]; Example 1, exposed 8 hr to 2, 4 or 6 packets 1-MCP (in cyclodextrin at 0.014%) in sealed 30 L container, measured over 4 days", "value": "high upon removal but quickly decreased and continued to decrease through 4 days post-exposure"}, {"measurement": "CO2 production", "setting": "Mexican avocados [1]; Example 2, 1-MCP exposure at stage 1", "value": "continuous decrease in CO2 production, back to day 0 levels"}, {"measurement": "cumulative respiration factor (RF)", "setting": "Mexican avocados [1]; cold 1-MCP: exposed 8 hours immediately after removal from 4.5° C. storage", "value": 1.8, "unit": "×"}, {"measurement": "cumulative respiration factor (RF)", "setting": "Mexican avocados [1]; semi-cold (2 hours at ambient) and ambient (6 hours at ambient) 1-MCP exposure, 8 hours", "value": 2.5, "unit": "×"}, {"measurement": "RF (respiration factor)", "setting": "Mexican avocados [1]; Example 7, 1-MCP 8 hours, regardless of subsequent ethylene exposure (24 hours at 200 ppm)", "value": 1.62, "unit": "×"}, {"measurement": "durometer stage", "setting": "Mexican avocados [2]; Example 1, 6 packets of 1-MCP, day 4 (untreated stage 5)", "value": 1.5}, {"measurement": "softening rate", "setting": "Mexican avocados [2]; Example 2, 1-MCP applied at stage 3", "value": "slight effect"}, {"measurement": "ripening", "setting": "Mexican avocados [2]; Example 3, cold 1-MCP", "value": "ripening behavior was still observed"}, {"measurement": "ripening stage relative to control group", "setting": "Mexican avocados [2]; Example 3, cold 1-MCP, by the time the control group reached stage 5", "value": "over two stages behind the control group"}, {"measurement": "ripening", "setting": "Mexican avocados [2]; [9]", "value": "did not ripen effectively"}, {"measurement": "softening rate reduction", "setting": "Mexican avocados [2]; [9]", "value": "greater softening rate reduction than cold 1-MCP"}, {"measurement": "checkerboarding (high variability of stage of ripeness)", "setting": "Mexican avocados [3]; Example 1", "value": "observed"}, {"measurement": "feel of the avocados", "setting": "Mexican avocados [3]; Example 1", "value": "spongy"}, {"measurement": "incidence of flesh adhesion", "setting": "Mexican avocados [3]; [10]", "value": "> 30", "unit": "%"}, {"measurement": "incidence of mold", "setting": "Mexican avocados [3]; [10]", "value": "> 25", "unit": "%"}, {"measurement": "internal quality", "setting": "Mexican avocados [3]; Example 2", "value": "did not improve internal quality"}, {"measurement": "incidence of mold and vascular browning", "setting": "Mexican avocados [3]; Example 2, 1-MCP at stage 1 or stage 3, approximately 40 shore", "value": "15-25%"}, {"measurement": "mass loss rate", "setting": "Cucumbers [4]; absence of ethylene", "value": "no impact"}, {"measurement": "mass loss rate", "setting": "Cucumbers [4]; presence of ethylene (2 ppm)", "value": "lowered the mass loss rate"}, {"measurement": "respiration rate", "setting": "Cucumbers [5]; absence of ethylene", "value": "did not lower the overall respiration rate"}, {"measurement": "respiration rate", "setting": "Cucumbers [5]; exposed to ethylene (2 ppm)", "value": "mitigated the corresponding increase in respiration rate"}, {"measurement": "yellowing", "setting": "Cucumbers [6]", "value": "greater positive impact on the rate of yellowing"}, {"measurement": "mass loss rate", "setting": "Persian limes [7]", "value": "no significant impact"}, {"measurement": "yellowing / aesthetics", "setting": "Persian limes [8]", "value": "reduced the yellowing"}]}]}
